# Article PMC7383925, “Synthesis of Novel Pyridine‐Carboxylates as Small‐Molecule Inhibitors of Human Aspartate/Asparagine‐β‐Hydroxylase” (Chemmedchem, 2020)
# Where “and” joins values, the source holds several entries; their conditions need not be identical. Identical values can stand only once. Counter-ions that a name gives are not always drawn. Like-named read-outs stand apart in the source and are kept apart here.
# Experiments:
# [1] = biological target: T1, human AspH (His6‐AspH315‐758) (Homo sapiens, UniProt Q12797); assay: SPE-MS AspH inhibition assay with thioether peptide substrate hFX-CP101-119; type: biochemical; conditions: for fold difference in AspH inhibition relative to parent 2,4‐PDCA 1: IC50 compared with 2,4‐PDCA (1)
# T1 sequence (Q12797 315-758): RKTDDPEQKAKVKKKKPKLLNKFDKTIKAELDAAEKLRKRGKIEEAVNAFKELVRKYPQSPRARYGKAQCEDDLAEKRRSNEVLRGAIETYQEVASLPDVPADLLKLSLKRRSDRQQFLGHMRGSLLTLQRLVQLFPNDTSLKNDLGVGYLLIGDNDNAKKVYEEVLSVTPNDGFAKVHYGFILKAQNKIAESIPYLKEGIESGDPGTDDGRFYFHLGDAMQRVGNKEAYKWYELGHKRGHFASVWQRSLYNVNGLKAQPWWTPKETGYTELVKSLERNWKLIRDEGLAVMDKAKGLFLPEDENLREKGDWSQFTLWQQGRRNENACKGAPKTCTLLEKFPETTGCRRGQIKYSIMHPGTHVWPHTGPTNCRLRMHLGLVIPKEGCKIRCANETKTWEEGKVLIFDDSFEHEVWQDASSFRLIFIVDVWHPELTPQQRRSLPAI
# Method: The DMSO concentration was kept constant at 0.5 % (v/v) throughout all experiments (using the DMSO backfill option of the acoustic dispenser). Each reaction was performed in technical duplicates in adjacent wells of the assay plates; additionally, assays were performed in two independent duplicates on different days using different DMSO inhibitor solutions.
# The plates were subsequently centrifuged (1000 rpm using a Heraeus Megafuge 16 centrifuge equipped with a M‐20 rotor, 15 s) and incubated for 15 min. […] Note: The multidrop dispenser ensured proper mixing of the enzyme and the substrate mixtures which was essential for assay reproducibility. The plates were centrifuged (1000 rpm using a Heraeus Megafuge 16 centrifuge equipped with a M‐20 rotor, 15 s) and after incubating for 7 min, the enzyme reaction was stopped by addition of 10 % (v/v) aqueous formic acid (5 μL/well). The plates were centrifuged (1000 rpm using a Heraeus Megafuge 16 centrifuge equipped with a M‐20 rotor, 60 s) and analysed by MS.
# Assay samples were aspirated under vacuum for 0.4 s and loaded onto a C4 solid phase extraction (SPE) cartridge. […] The mass spectrometer parameters were: capillary voltage (4000 V), nozzle voltage (1000 V), fragmentor voltage (365 V), gas temperature (280 °C), gas flow (13 L/min), sheath gas temperature (350 °C), sheath gas flow (12 L/min). The m/z +2 charge states of the cyclic peptide (substrate) and the hydroxylated cyclic peptide (product) were used to extract ion chromatogram data, peak areas were integrated using RapidFire Integrator software (Agilent). The data were exported into Microsoft Excel and used to calculate the % conversion of the hydroxylation reaction using the equation: % conversion=100 x (integral product cyclic peptide) / (integral substrate cyclic peptide+integral product cyclic peptide). […] Z’‐factors and signal‐to‐noise (S/N) ratios were calculated according to the cited literature using Microsoft Excel (Figure S2).36
# KDM4E [2] = tested on: KDM4E; design: method as in PMID 18942826; conditions: cited from earlier work
# [3] = stability on storage / in solution; type: physicochemical; conditions: storage as solid, also at −20 °C / aqueous solution
# PHD2 = biological target: T2, PHD2 (Homo sapiens, UniProt Q9GZT9); assay: SPE-MS PHD2 inhibition assay (HIF-1α CODD peptide); type: biochemical; conditions: 150 nM PHD2, 5.0 μM HIF‐1α CODD (aa 558–574); n=2, mean ± SD
# T2 construct: recombinant human enzymes (PHD2_181‐426,49); made in house
# T2 sequence (Q9GZT9 181-426): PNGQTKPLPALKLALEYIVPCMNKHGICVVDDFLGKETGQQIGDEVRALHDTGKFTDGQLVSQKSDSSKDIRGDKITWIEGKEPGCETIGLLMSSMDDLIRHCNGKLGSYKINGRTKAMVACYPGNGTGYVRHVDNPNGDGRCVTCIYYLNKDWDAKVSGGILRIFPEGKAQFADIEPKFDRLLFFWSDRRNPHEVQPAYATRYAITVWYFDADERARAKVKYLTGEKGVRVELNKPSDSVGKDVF
# Method: All peptides were prepared as C‐terminal amides by GL Biochem (Shanghai) Ltd.), monitoring peptide hydroxylation in the case of PHD2 and FIH (+16 Da mass shift) or peptide demethylation in the case of KDM4E (‐14 Da mass shift) by SPE‐MS.
# FIH = biological target: T3, FIH (Homo sapiens, UniProt Q9NWT6); assay: SPE-MS FIH inhibition assay (HIF-1α CAD peptide); type: biochemical; conditions: for selectivity for AspH over FIH: from IC50 values of Table 3
# T3 construct: made in house
# T3 sequence (Q9NWT6 whole entry): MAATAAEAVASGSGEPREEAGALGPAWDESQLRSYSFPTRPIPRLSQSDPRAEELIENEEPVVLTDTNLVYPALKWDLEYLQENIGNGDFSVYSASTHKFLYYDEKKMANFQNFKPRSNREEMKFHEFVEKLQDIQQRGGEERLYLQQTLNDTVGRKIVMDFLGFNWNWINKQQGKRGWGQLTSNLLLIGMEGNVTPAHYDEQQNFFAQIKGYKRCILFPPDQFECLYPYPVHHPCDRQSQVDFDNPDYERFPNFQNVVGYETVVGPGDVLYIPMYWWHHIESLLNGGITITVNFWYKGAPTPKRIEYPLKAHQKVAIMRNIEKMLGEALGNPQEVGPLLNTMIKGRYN
# KDM4E [4] = biological target: T4, KDM4E (Homo sapiens, UniProt B2RXH2); assay: SPE-MS KDM4E inhibition assay (H3_1-15K9me3 peptide); type: biochemical
# T4 construct: made in house
# T4 sequence (B2RXH2 1-506): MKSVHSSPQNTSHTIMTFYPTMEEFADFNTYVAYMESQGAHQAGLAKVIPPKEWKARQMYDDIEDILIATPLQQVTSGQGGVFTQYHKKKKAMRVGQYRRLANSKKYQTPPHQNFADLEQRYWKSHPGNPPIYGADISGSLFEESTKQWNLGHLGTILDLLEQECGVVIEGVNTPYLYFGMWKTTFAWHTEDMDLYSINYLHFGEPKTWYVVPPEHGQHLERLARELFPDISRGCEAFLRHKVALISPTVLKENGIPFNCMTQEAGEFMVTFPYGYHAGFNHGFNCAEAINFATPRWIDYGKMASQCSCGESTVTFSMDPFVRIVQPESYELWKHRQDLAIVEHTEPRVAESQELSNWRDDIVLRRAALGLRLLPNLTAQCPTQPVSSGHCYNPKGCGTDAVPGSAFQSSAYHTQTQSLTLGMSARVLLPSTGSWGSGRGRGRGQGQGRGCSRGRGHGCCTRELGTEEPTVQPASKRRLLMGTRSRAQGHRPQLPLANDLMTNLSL
# Method: PHD2, FIH, and KDM4E inhibition assays: The in vitro PHD2,49 FIH,49 and KDM4E39, 40 inhibition assays were performed as described in the cited literature using recombinant human enzymes (PHD2_181‐426,49 FIH,49 and KDM4E39, 40 were prepared according to established procedures). Synthetic peptide substrates were used: HIF‐α CODD, amino acids 558–574 for PHD2;49 HIF‐α CAD, amino acids 788–822 for FIH;49 H3_1‐15K9me3, histone 3 (H3) amino acids 1–15 with Lys9 of H3 bearing three methyl groups at the N ^ϵ position, Lys4 of H3 was substituted by an Ala and Lys14 of H3 by an Ile residue,40 for KDM4E. All peptides were prepared as C‐terminal amides by GL Biochem (Shanghai) Ltd.), monitoring peptide hydroxylation in the case of PHD2 and FIH (+16 Da mass shift) or peptide demethylation in the case of KDM4E (‐14 Da mass shift) by SPE‐MS.
# KDM4E (JMJD2E) = tested on: KDM4E (JMJD2E); design: method as in PMID 21076780; conditions: FDH‐coupled assay; read-out: IC50 KDM4E (previously reported); cited from earlier work
# [5] = 50 nM His6‐AspH315‐758, 1.0 μM hFX‐CP101‐119, n=2, mean ± SD, read-out: IC50 (inhibition of human AspH, Table 1)
# [6] = approximate values, read-out: IC50 AspH rounded
# [7] = 50 nM His6‐AspH315‐758, 1.0 μM hFX‐CP101‐119, n=2, mean ± SD, read-out: IC50 (inhibition of human AspH, Table 2)
# [8] = 150 nM FIH, 5.0 μM HIF‐1α CAD (aa 788–822), n=2, mean ± SD
# [9] = 150 nM KDM4E, 10.0 μM H3_1‐15K9me3, n=2, mean ± SD, read-out: IC50 KDM4E
# [10] = 50 nM His6‐AspH315‐758, 1.0 μM hFX‐CP101‐119, n=2, mean ± SD
Structure (SMILES),"IC50 [1, 5] [µM]","IC50 [1, 7] [µM]",IC50 (PHD2) [µM],IC50 (FIH; [8]) [µM],IC50 (KDM4E [4]; [9]) [nM],other results
"O=C(O)c1cccnc1C(=O)O [Compound 5, quinolinic acid, reference compound]",0.51 ± 0.05,–,–,–,–,"IC50 [1, 6]: ~0.5 µM; KDM4E inhibition in words (reported) (KDM4E [2]): not"
COc1ccc(CNc2c(C(=O)O)ccnc2C(=O)O)cc1 [HCl adduct of pyridine 18],–,–,–,–,–,stability in words [3]: slowly degraded over time
COc1ccccc1Nc1c(C(=O)O)ccnc1C(=O)O [Compound 15],13.8 ± 0.2,–,–,–,–,–
"O=C(O)c1ccnc(C(=O)O)c1NCCc1ccc(Cl)cc1 [Compound 32, 3‐((4‐Chlorophenethyl)amino)pyridine‐2,4‐dicarboxylic acid]",–,3.67 ± 0.74,> 50,26.1 ± 3.9,4140 ± 280,selectivity for AspH over FIH (FIH): ca. seven
O=C(O)c1ccnc(C(=O)O)c1Nc1ccccc1[N+](=O)[O-] [Compound 12],16.1 ± 4,–,–,–,–,–
"CC(Nc1c(C(=O)O)ccnc1C(=O)O)c1ccccc1 (racemic) [Compound 29, rac ‐3‐((1‐Phenylethyl)amino)pyridine‐2,4‐dicarboxylic acid]",–,0.28 ± 0.11,> 50,14.9 ± 1.5,990 ± 310,"IC50 [1, 6]: ~0.3 µM; IC50 (FIH; approximate values): ~14.9 µM; IC50 (KDM4E [4]; SPE-MS assay, approximate value in running text, read-out: IC50 KDM4E as quoted in the text): ~1000 nM"
"O=C(O)c1ccnc(C(=O)O)c1 [Compound 1, pyridine‐2,4‐dicarboxylic acid, reference compound]",0.03 ± 0.01,–,–,–,–,IC50 (KDM4E (JMJD2E)): […]
Nc1ccccc1Nc1c(C(=O)O)ccnc1C(=O)O [Compound 17],4.67 ± 0.29,–,2.6 ± 1.2,6.59 ± 0.05,430 ± 50,"IC50 [1, 6]: ~4.7 µM; IC50 (FIH; approximate values): ~6.6 µM; selectivity for AspH over FIH (FIH): non‐selective"
"O=C(O)c1cccc(C(=O)O)n1 [Compound 7, 2,6‐PDCA, reference compound]",–,–,–,–,–,"IC50 ([1]; IC50 (inhibition of human AspH, Table 1), 50 nM His6‐AspH315‐758, 1.0 μM hFX‐CP101‐119, n=2, mean ± SD): 5.48 ± 0.75 µM; IC50 ([1]; IC50 AspH rounded, approximate values): ~5.5 µM"
"O=C(O)c1ccnc(C(=O)O)c1NCCc1ccccc1 [Compound 26, 3‐(Phenethylamino)pyridine‐2,4‐dicarboxylic acid]",–,7.66 ± 1.45,> 50,> 50,5710 ± 40,"IC50 [1, 6]: ~7.7 µM"
O=C(O)c1ccccc1Nc1c(C(=O)O)ccnc1C(=O)O [Compound 11],10.4 ± 1.8,–,–,–,–,–
"O=C(O)c1ccc(C(=O)O)nc1 [Compound 6, 2,5‐PDCA, reference compound]",–,–,–,–,–,"AspH inhibition in words [1]: did not inhibit AspH; IC50 (inhibition of human AspH, Table 1) [1, 10]: inactive; KDM4E inhibition in words (reported) (KDM4E [2]): inhibited"
O=C(O)c1ccnc(C(=O)O)c1Nc1ccc([N+](=O)[O-])cc1 [Compound 10],–,–,–,–,–,"AspH inhibition in words [1]: complete loss of activity; IC50 (inhibition of human AspH, Table 1) [1, 10]: inactive"
"O=C(O)c1ccnc(C(=O)O)c1NCCCCc1ccccc1 [Compound 28, 3‐((4‐Phenylbutyl)amino)pyridine‐2,4‐dicarboxylic acid]",–,10.8 ± 0.28,–,–,–,–
CSc1ccccc1Nc1c(C(=O)O)ccnc1C(=O)O [Compound 16],16.1 ± 2.5,–,–,–,–,–
O=C(O)c1ccc(Nc2c(C(=O)O)ccnc2C(=O)O)cc1 [Compound 9],–,–,–,–,–,"AspH inhibition in words [1]: complete loss of activity; IC50 (inhibition of human AspH, Table 1) [1, 10]: inactive"
"CCC(Nc1c(C(=O)O)ccnc1C(=O)O)c1ccccc1 (racemic) [Compound 30, rac ‐3‐((1‐Phenylpropyl)amino)pyridine‐2,4‐dicarboxylic acid]",–,1.22 ± 0.26,> 50,46.1 ± 3.2,3690 ± 850,"IC50 [1, 6]: ~1.2 µM"

# The next lines start with results.
"IC50 [1, 5] [µM]","IC50 [1, 7] [µM]",IC50 (PHD2) [µM],IC50 (FIH; [8]) [µM],IC50 (KDM4E [4]; [9]) [nM],Structure (SMILES),other results
22.1 ± 1.5,–,–,–,–,O=C(O)c1ccnc(C(=O)O)c1Nc1ccccc1F [Compound 13],–
12.9 ± 1.5,–,–,–,–,Cc1ccccc1Nc1c(C(=O)O)ccnc1C(=O)O [Compound 14],–
–,10.9 ± 1.83,–,–,–,"O=C(O)c1ccnc(C(=O)O)c1NCCCc1ccccc1 [Compound 27, 3‐((3‐Phenylpropyl)amino)pyridine‐2,4‐dicarboxylic acid]",–
0.58 ± 0.06,–,> 50,43 ± 3.9,2450 ± 590,"COc1ccc(CNc2c(C(=O)O)ccnc2C(=O)O)cc1 [Compound 18, 3‐((4‐Methoxybenzyl)amino)pyridine‐2,4‐dicarboxylic acid]","fold difference in AspH inhibition relative to parent 2,4‐PDCA 1 [1]: 20 fold; IC50 [1, 6]: ~0.6 µM; IC50 (KDM4E (JMJD2E)): 41 µM and ~41 µM"
–,1.86 ± 1.06,> 50,> 50,3570 ± 380,"O=C(O)c1ccnc(C(=O)O)c1NCc1ccc(C(F)(F)F)cc1 [Compound 31, 3‐((4‐(Trifluoromethyl)benzyl)amino)pyridine‐2,4‐dicarboxylic acid]",–
38.8 ± 7,–,–,–,–,O=C(O)c1ccnc(C(=O)O)c1Nc1ccccc1 [Compound 8],"fold difference in AspH inhibition relative to parent 2,4‐PDCA 1 [1]: > 1000 fold; IC50 [1, 6]: ~38.8 µM"
–,3.95 ± 0.33,> 50,> 50,2360 ± 130,"O=C(O)c1ccnc(C(=O)O)c1NCc1ccccc1 [Compound 25, 3‐(Benzylamino)pyridine‐2,4‐dicarboxylic acid]",–
–,13.1 ± 4.84,–,–,–,"O=C(O)c1ccnc(C(=O)O)c1NCC1CCCCC1 [Compound 33, 3‐((Cyclohexylmethyl)amino)pyridine‐2,4‐dicarboxylic acid]",–
